Test system: HIV-1 (H9IIIB strain)
Assay: Cell-Based HIV Infection Assay Using a Reporter (MT4-GFP cells)
Conditions: Human immunodeficiency virus 1, inflection point (IP) of viral growth inhibition; MT4-GFP cells infected with HIV-1 H9IIIB; 50% normal human serum; mean of at least two independent experiments; read-out: Cell Based IP (50% NHS)
In short: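 Inflection point from a 4-parameter curve of % viral growth inhibition, normalised to DMSO and triple-drug controls, using the 48 h/24 h ratio of GFP-positive cells (R0). MT4-GFP cells pre-infected 24 h with HIV-1 H9IIIB at low MOI; compounds tested in 50% normal human serum, 0.4% DMSO; mean of ≥2 experiments.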

In order of rising EC50:
1. N[C@H](C(=O)Nc1cccc(F)c1CCC1CNC2CCCS(=O)(=O)N1C2)[C@@H](c1ccc(F)cc1)c1cc(F)cc(F)c1 (stereo partly drawn) [Example 1, (βS)—N-{2-[2-(2,2-Dioxido-2-thia-1,7-diazabicyclo[4.3.1]dec-9-yl)ethyl]-3-fluorophenyl}-3,5-difluoro-β-(4-fluorophenyl)-L-phenylalaninamide]  0.0029 µM
2. COC(=O)N[C@H](C(=O)Nc1cccc(F)c1CCC1CNC2CCCS(=O)(=O)N1C2)[C@@H](c1ccc(F)cc1)c1cc(F)cc(F)c1 (stereo partly drawn) [Example 35, methyl [(1S,2S)-2-(3,5-difluorophenyl)-1-({2-[2-(2,2-dioxido-2-thia-1,7-diazabicyclo[4.3.1]dec-9-yl)ethyl]-3-fluorophenyl}carbamoyl)-2-(4-fluorophenyl)ethyl]carbamate]  0.0038 µM
3. COC(=O)N[C@H](C(=O)Nc1cccc(F)c1CC[C@H]1CN[C@@H]2CCCS(=O)(=O)N1C2)[C@@H](c1ccc(Cl)c(F)c1)C1C[C@@H](C)O[C@@H](C)C1 (stereo partly drawn) [Example 16, Methyl {(1S,2R)-2-(4-chloro-3-fluorophenyl)-2-[(2R,6S)-2,6-dimethyltetrahydro-2H-pyran-4-yl]-1-[(2-{2-[(6R,9S)-2,2-dioxido-2-thia-1,7-diazabicyclo[4.3.1]dec-9-yl]ethyl}-3-fluorophenyl)carbamoyl]ethyl}carbamate]  0.0049 µM
4. N[C@H](C(=O)Nc1cccc(F)c1CCC1CNC2CCCS(=O)(=O)N1C2)[C@@H](c1ccc(F)cc1)c1cccc(C(F)(F)F)c1 (stereo partly drawn) [Example 2, (βS)—N-{2-[2-(2,2-Dioxido-2-thia-1,7-diazabicyclo[4.3.1]dec-9-yl)ethyl]-3-fluorophenyl}-β-(4-fluorophenyl)-3-(trifluoromethyl)-L-phenylalaninamide]  0.0067 µM
5. C[C@@H]1CC([C@H](c2ccc(Cl)c(F)c2)[C@H](N)C(=O)Nc2cccc(F)c2CC[C@H]2CN[C@@H]3CCCS(=O)(=O)N2C3)C[C@H](C)O1 (stereo partly drawn) [Example 165, (βR)-4-chloro-β-[(2R,6S)-2,6-dimethyltetrahydro-2H-pyran-4-yl]-N-(2-{2-[(6R,9S)-2,2-dioxido-2-thia-1,7-diazabicyclo[4.3.1]dec-9-yl]ethyl}-3-fluorophenyl)-3-fluoro-L-phenylalaninamide]  0.0075 µM
6. CC1(C)C[C@@H]([C@H](c2ccc(Cl)cc2)[C@H](N)C(=O)Nc2cncc(F)c2CC[C@H]2CN[C@@H]3CCCS(=O)(=O)N2C3)CCO1 [Example 215, (βR)-4-chloro-β-[(4S)-2,2-dimethyltetrahydro-2H-pyran-4-yl]-N-(4-{2-[(6R,9S)-2,2-dioxido-2-thia-1,7-diazabicyclo[4.3.1]dec-9-yl]ethyl}-5-fluoropyridin-3-yl)-L-phenylalaninamide]  0.008 µM
7. Cn1nc([C@H](c2ccc(Cl)c(F)c2)[C@H](N)C(=O)Nc2cccc(F)c2CC[C@H]2CN[C@@H]3CCCS(=O)(=O)N2C3)cc1C(F)(F)F [Example 265, (βR)-4-chloro-N-(2-{2-[(6R,9S)-2,2-dioxido-2-thia-1,7-diazabicyclo[4.3.1]dec-9-yl]ethyl}-3-fluorophenyl)-3-fluoro-β-[1-methyl-5-(trifluoromethyl)-1H-pyrazol-3-yl]-L-phenylalaninamide]  0.0098 µM
8. COC(=O)N[C@H](C(=O)Nc1cccc(F)c1CC[C@H]1CN[C@@H]2CCCCS(=O)(=O)N1C2)[C@@H](c1ccc(F)cc1)c1cc(F)cc(F)c1 [Example 277, Methyl ((1S,2S)-1-(3,5-difluorophenyl)-3-((2-(2-((7R,10S)-2,2-dioxido-2-thia-1,8-diazabicyclo[5.3.1]undecan-10-yl)ethyl)-3-fluorophenyl)amino)-1-(4-fluorophenyl)-3-oxopropan-2-yl)carbamate]  0.01 µM
9. COC(=O)N[C@H](C(=O)Nc1cc(F)cc(F)c1CC[C@H]1CN[C@@H]2CCCS(=O)(=O)N1C2)[C@@H](c1ccc(Cl)cc1)C1CCOCC1 [Example 144, methyl [(1S,2R)-2-(4-chlorophenyl)-1-[(2-{2-[(6R,9S)-2,2-dioxido-2-thia-1,7-diazabicyclo[4.3.1]dec-9-yl]ethyl}-3,5-difluorophenyl)carbamoyl]-2-(tetrahydro-2H-pyran-4-yl)ethyl]carbamate]  0.021 µM
10. N[C@H](C(=O)Nc1cccc(F)c1CCC1CNC2CCCS(=O)(=O)N1C2)[C@@H](c1ccc(Cl)cc1)C1CCOCC1 (stereo partly drawn) [Example 36, (βR)-4-chloro-N-{2-[2-(2,2-dioxido-2-thia-1,7-diazabicycio[4.3.1]dec-9-yl)ethyl]-3-fluorophenyl}-β-(tetrahydro-2H-pyran-4-yl)-L-phenylalaninamide]  0.022 µM
11. N[C@H](C(=O)Nc1cncc(F)c1CC[C@H]1CN[C@@H]2CCCS(=O)(=O)N1C2)[C@@H](c1ccc(Cl)cc1)C1CCOCC1 [Example 173, (βR)-4-chloro-N-(4-{2-[(6R,9S)-2,2-dioxido-2-thia-1,7-diazabicyclo[4.3.1]dec-9-yl]ethyl}-5-fluoropyridin-3-yl)-β-(tetrahydro-2H-pyran-4-yl)-L-phenylalaninamide]  0.023 µM
12. CC1(C)CC([C@H](c2ccc(F)cc2)[C@H](N)C(=O)Nc2ccc(F)c(F)c2CC[C@H]2CN[C@@H]3CCCS(=O)(=O)N2C3)CCO1 (stereo partly drawn) [Example 179, (βR)-β-(2,2-dimethyltetrahydro-2H-pyran-4-yl)-N-(2-{2-[(6R,9S)-2,2-dioxido-2-thia-1,7-diazabicyclo[4.3.1]dec-9-yl]ethyl}-3,4-difluorophenyl)-4-fluoro-L-phenylalaninamide]  0.031 µM
13. N[C@H](C(=O)Nc1cccc(F)c1CCC1CNC2CCCS(=O)(=O)N1C2)[C@@H](c1ccc(F)cc1)c1ccc2c(c1)CCC2 (stereo partly drawn) [Example 225, (2S,3S)-2-Amino-3-(2,3-dihydro-1H-inden-5-yl)-N-{2-[2-(2,2-dioxido-2-thia-1,7-diazabicyclo[4.3.1]dec-9-yl)ethyl]-3-fluorophenyl}-3-(4-fluorophenyl)propanamide]  0.045 µM
14. COCCN[C@H](C(=O)N[C@H]1CCC[C@@H]1CC[C@H]1CN[C@@H]2CCCS(=O)(=O)N1C2)[C@@H](c1ccc(Cl)cc1)C1CCOC(C)(C)C1 (stereo partly drawn) [Example 182, (βR)-4-chloro-β-(2,2-dimethyltetrahydro-2H-pyran-4-yl)-N-[(1S,2R)-2-{2-[(6R,9S)-2,2-dioxido-2-thia-1,7-diazabicyclo[4.3.1]dec-9-yl]ethyl}cyclopentyl]-Nα-(2-methoxyethyl)-L-phenylalaninamide]  0.07 µM
15. COC(=O)N[C@H](C(=O)Nc1cccc(F)c1CCC1CNC2CCCS(=O)(=O)N1C2)[C@@H](c1ccc(F)cc1)C12CC(C1)C2 (stereo partly drawn) [Example 87, methyl [(1S,2R)-2-bicyclo[1.1.1]pent-1-yl-1-({2-[2-(2,2-dioxido-2-thia-1,7-diazabicyclo[4.3.1]dec-9-yl)ethyl]-3-fluorophenyl}carbamoyl)-2-(4-fluorophenyl)ethyl]carbamate]  0.13 µM
16. CO[C@H]1CC[C@](c2ccc(F)cc2)([C@H](N)C(=O)Nc2cccc(F)c2CC[C@H]2CN[C@@H]3CCCS(=O)(=O)N2C3)CC1 [Example 205, (2S)-2-amino-N-(2-{2-[(6R,9S)-2,2-dioxido-2-thia-1,7-diazabicyclo[4.3.1]dec-9-yl]ethyl}-3-fluorophenyl)-2-[trans-1-(4-fluorophenyl)-4-methoxycyclohexyl]ethanamide]  0.13 µM
17. COC(=O)N[C@H](C(=O)Nc1cccc(F)c1OCC1CNC2CCCS(=O)(=O)N1C2)[C@@H](c1ccc(F)cc1)c1cc(F)cc(F)c1 (stereo partly drawn) [Example 85, methyl [(1S,2S)-2-(3,5-difluorophenyl)-1-({2-[(2,2-dioxido-2-thia-1,7-diazabicyclo[4.3.1]dec-9-yl)methoxy]-3-fluorophenyl}carbamoyl)-2-(4-fluorophenyl)ethyl]carbamate]  0.15 µM
18. COC(=O)N[C@H](C(=O)N[C@H]1CCC[C@@H]1CC[C@H]1CN[C@@H]2CCCS(=O)(=O)N1C2)[C@@H](c1ccccc1)c1ccc(OC)nc1 [Example 82, methyl {(1S)-2-{[(1S,2R)-2-{2-[(6R,9S)-2,2-dioxido-2-thia-1,7-diazabicyclo[4.3.1]dec-9-yl]ethyl}cyclopentyl]amino}-1-[(S)-(6-methoxypyridin-3-yl)(phenyl)methyl]-2-oxoethyl}carbamate]  0.16 µM
19. CCCN[C@H](C(=O)N[C@H]1CCC[C@@H]1CC[C@H]1CN[C@@H]2CCCS(=O)(=O)N1C2)[C@@H](c1ccc(Cl)cc1)C1CCOC(C)(C)C1 (stereo partly drawn) [Example 177, (βR)-4-chloro-β-(2,2-dimethyltetrahydro-2H-pyran-4-yl)-N-[(1S,2R)-2-{2-[(6R,9S)-2,2-dioxido-2-thia-1,7-diazabicyclo[4.3.1]dec-9-yl]ethyl}cyclopentyl]-Nα-propyl-L-phenylalaninamide]  0.4 µM
20. CO[C@H]1CC[C@@](c2ccc(Cl)cc2)([C@H](N)C(=O)Nc2cccc(F)c2CC[C@H]2CN[C@@H]3CCCS(=O)(=O)N2C3)CC1 [Example 126, (2S)-2-amino-2-[cis-1-(4-chlorophenyl)-4-methoxycyclohexyl]-N-(2-{2-[(6R,9S)-2,2-dioxido-2-thia-1,7-diazabicyclo[4.3.1]dec-9-yl]ethyl}-3-fluorophenyl)ethanamide]  0.61 µM

Same assay, conditions: inflection point (IP) of viral growth inhibition; MT4-GFP cells infected with HIV-1 H9IIIB; 50% normal human serum; mean of at least two independent experiments; read-out: Cell Based IP (50% NHS)

`COC(=O)N[C@H](C(=O)Nc1cncc(F)c1CC[C@H]1CN[C@@H]2CCCS(=O)(=O)N1C2)C1(c2ccc(Cl)cc2)CCC(C(F)(F)F)CC1` (relative stereo) [Example 270, methyl {(1S)-1-[cis-1-(4-chlorophenyl)-4-(trifluoromethyl)cyclohexyl]-2-[(4-{2-[(6R,9S)-2,2-dioxido-2-thia-1,7-diazabicyclo[4.3.1]dec-9-yl]ethyl}-5-fluoropyridin-3-yl)amino]-2-oxoethyl}carbamate] was tested, and the EC50 was 0.02 µM.

Source: patent US10138255B2, “Piperazine derivatives as HIV protease inhibitors” (Merck Sharp & Dohme Corp., priority 2014, dated 2018)
